Results as given in patent US20040092547A1, “Alkyl-[4-(difluorophenyl)-oxazol-5-yl]-triazolo-pyridines” (Pfizer Inc, priority 2002, published 2004).

melting point: 175.7 to 176.2 °C
SMILES: CC(C)c1nnc2ccc(-c3ocnc3-c3c(F)cccc3F)cn12 [Example 1, 6-[4-(2,6-Difluoro-phenyl)-oxazol-5-yl]-3-isopropyl-[1,2,4]triazolo[4,3-a]pyridine]
